One test relates to HCV replicon genotype 1a. Kind of test: HCV replicon assay, genotype 1a (cell ELISA for NS3/4A). As to conditions: Hepatitis C virus, 96 h, read-out: 1a IC50 (nM). The class given is cell-based. How it is done: (§1) Measurement of inhibition by compounds was performed using the HCV replicon system. Several different replicons encoding different HCV genotypes or mutations were used. In addition, potency measurements were made using different formats of the replicon assay, including different ways of measurements and different plating formats. See Jan M. Vrolijk et al., A replicons-based bioassay for the measurement of interferons in patients with chronic hepatitis C, 110 J. V[…] 201 (2003); Steven S. Carroll et al., Inhibition of Hepatitis C Virus RNA Replication by 2′-Modified Nucleoside Analogs, 278(14) J. BIOLOGICAL CHEMISTRY 11979 (2003). However, the underlying principles are common to all of these determinations, and are outlined below.
(§2) Stable neomycin phosphotransferase encoding replicons-harboring cell lines were used, so all cell lines were maintained under G418 selection prior to the assay. Potency was determined using a cell ELISA assay with an antibody to the replicons encoded NS3/4a protease. See Caterina Trozzi et al., In Vitro Selection and Characterization of Hepatitis C Virus Serine Protease Variants Resistant to an Active-Site Peptide Inhibitor, 77(6) J. Virol. 3669 (2003). To initiate an assay, replicon cells were plated in the presence of a dilution series of test compound in the absence of G418. Typically, the assays were performed in a 96-well plate formate for manual operation, or a 384-well plate format for automated assay. Replicon cells and compound were incubated for 96 hours. At the end of the assay, cells were washed free of media and compound, and the cells were then lysed. RNA was quantified indirectly through detection of replicon-encoded NS3/4A protein levels, through an ELISA-based assay with an antibody specific for NS3/4A. IC50 determinations were calculated as a percentage of a DMSO control by fitting the data to a four-parameter fit function and the data obtained is provided in the table below.
(§3) Data for selected compounds of the present invention was obtained for genotypes 1a and 1b using this method and is provided in the table below: […]

In another test the test system is HCV replicon genotype 1b. The experiment in a line: HCV replicon assay, genotype 1b (cell ELISA for NS3/4A). The class given is cell-based. The following applies: Hepatitis C virus, 96 h, read-out: 1b IC50 (nM). Here is the method:
as §1, §2, §3

Turning to `CNC(=O)c1c(-c2ccc(F)cc2)oc2cc(N(C)S(C)(=O)=O)c(-c3ccc(OC)c(-c4cc5ccccn5n4)n3)cc12` [Compound 254, 2-(4-fluorophenyl)-5-(5-methoxy-6-(pyrazolo[1,5-a]pyridin-2-yl)pyridin-2-yl)-N-methyl-6-(N-methylmethylsulfonamido)benzofuran-3-carboxamide], the IC50 with HCV replicon genotype 1a is 214 nM; in the test with HCV replicon genotype 1b, 26 nM.
In the case of `CNC(=O)c1c(-c2ccc(F)cc2)oc2cc(N(C)S(C)(=O)=O)c(-c3cc(-c4cc5c(F)cccc5[nH]4)nnc3OC)cc12` [Compound 223], the IC50 worked out at 2.8 nM in the test on HCV replicon genotype 1a and 4.5 nM with HCV replicon genotype 1b.
The matching figures for `CNC(=O)c1c(-c2ccc(F)cc2)oc2cc(N(C)S(C)(=O)=O)c(-c3cnnc(-n4ncc5c(F)cccc54)c3)cc12` [Compound 264]: 25 nM and 10 nM.
In the case of `CNC(=O)c1c(-c2ccc(F)cc2)oc2cc(N(C)S(C)(=O)=O)c(-c3nc(-c4cc5c(F)cccc5[nH]4)ns3)cc12` [Compound 258], the IC50 with HCV replicon genotype 1a is 2.6 nM; in the test with HCV replicon genotype 1b, 2.5 nM.

(Values after patent US9549917B2, “Heterocyclic-substituted benzofuran derivatives and methods of use thereof for the treatment of viral diseases” (priority 2011, dated 2017).)
